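Assay format: 96-well plates, 48-hour exposure. GI50: concentration for 50% inhibition of growth.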 The source made the active and inactive calls. Cut-off read from the data, not from the text of the source: active = GI50 up to about 1.1 µM and inactive = higher. Where a SMILES comes first, the peptide text is derived from it. The star is where a group is joined. Boc = CC(C)(C)OC(=O)*
Key:
Assay in all cases: NCI tumour cell line growth inhibition, 48 h
A549 = system: A549
ACHN = system: ACHN
CAKI-1 = system: CAKI-1
EKVX = system: EKVX
HCC 2998 = system: HCC 2998
HCT-15 = system: HCT-15
HOP-92 = system: HOP-92
M14 = system: M14
Malme-3M = system: Malme-3M
NCI-H226 = system: NCI-H226
NCI-H460 = system: NCI-H460
NCI/ADR-RES = system: NCI/ADR-RES
RXF 393 = system: RXF 393
SK-MEL-5 = system: SK-MEL-5
SN12C = system: SN12C
U-251 = system: U-251
UACC-62 = system: UACC-62
UO-31 = system: UO-31
HL-60 = system: HL-60

SMILES: CCc1c(O)c2c(c(O)c1C(C)=O)C(=O)c1c(cc(O)c(C(=O)O)c1C(=O)O)C2=O
- GI50 (A549): > 100 µM (inactive)
- GI50 (ACHN): > 100 µM (inactive)
- GI50 (CAKI-1): > 100 µM (inactive)
- GI50 (EKVX): > 100 µM (inactive)
- GI50 (HCC 2998): > 100 µM (inactive)
- GI50 (HCT-15): > 100 µM
- GI50 (HOP-92): > 100 µM (inactive)
- GI50 (M14): > 100 µM (inactive)
- GI50 (Malme-3M): > 100 µM (inactive)
- GI50 (NCI-H226): > 100 µM (inactive)
- GI50 (NCI-H460): > 100 µM (inactive)
- GI50 (NCI/ADR-RES): > 100 µM (inactive)
- GI50 (RXF 393): > 100 µM (inactive)
- GI50 (SK-MEL-5): > 100 µM (inactive)
- GI50 (SN12C): > 100 µM (inactive)
- GI50 (U-251): > 100 µM (inactive)
- GI50 (UACC-62): > 100 µM (inactive)
- GI50 (UO-31): > 100 µM (inactive)

SMILES: CSc1nc2c(c(N3CCOCC3)n1)C(O)n1c(nc3ccccc31)S2 (centres undefined)
- GI50 (A549): 29.6 µM (inactive)
- GI50 (ACHN): 36.6 µM (inactive)
- GI50 (CAKI-1): > 100 µM (inactive)
- GI50 (EKVX): > 100 µM (inactive)
- GI50 (HCC 2998): > 100 µM (inactive)
- GI50 (HCT-15): 63 µM
- GI50 (HL-60): > 100 µM (inactive)
- GI50 (HOP-92): 72.3 µM (inactive)
- GI50 (M14): > 100 µM (inactive)
- GI50 (Malme-3M): 52.2 µM (inactive)
- GI50 (NCI-H460): 13.6 µM (inactive)
- GI50 (NCI/ADR-RES): 22.6 µM (inactive)
- GI50 (RXF 393): 80.4 µM (inactive)
- GI50 (SK-MEL-5): 3.23 µM (inactive)
- GI50 (SN12C): 77.8 µM (inactive)
- GI50 (U-251): 20.8 µM (inactive)
- GI50 (UACC-62): > 100 µM (inactive)
- GI50 (UO-31): 3.93 µM (inactive)

SMILES: CC(Cc1ccccc1)Nc1ncnc2c1ncn2C1OC(CO)CC1O (centres undefined)
- GI50 (A549): > 100 µM (inactive)
- GI50 (ACHN): > 100 µM (inactive)
- GI50 (CAKI-1): > 100 µM (inactive)
- GI50 (EKVX): > 100 µM (inactive)
- GI50 (HCC 2998): > 100 µM (inactive)
- GI50 (HCT-15): > 100 µM
- GI50 (HOP-92): > 100 µM (inactive)
- GI50 (M14): > 100 µM (inactive)
- GI50 (Malme-3M): > 100 µM (inactive)
- GI50 (NCI-H226): > 100 µM (inactive)
- GI50 (NCI-H460): > 100 µM (inactive)
- GI50 (NCI/ADR-RES): > 100 µM (inactive)
- GI50 (RXF 393): > 100 µM (inactive)
- GI50 (SK-MEL-5): > 100 µM (inactive)
- GI50 (SN12C): > 100 µM (inactive)
- GI50 (U-251): > 100 µM (inactive)
- GI50 (UACC-62): > 100 µM (inactive)
- GI50 (UO-31): > 100 µM (inactive)

SMILES: NC(C/C=C/P(=O)(O)O)C(=O)O (centres undefined)
- GI50 (A549): > 100 µM (inactive)
- GI50 (ACHN): > 100 µM (inactive)
- GI50 (CAKI-1): 2 µM (inactive)
- GI50 (EKVX): > 100 µM (inactive)
- GI50 (HCC 2998): > 100 µM (inactive)
- GI50 (HCT-15): > 100 µM
- GI50 (HL-60): > 100 µM (inactive)
- GI50 (HOP-92): > 100 µM (inactive)
- GI50 (M14): > 100 µM (inactive)
- GI50 (NCI-H460): > 100 µM (inactive)
- GI50 (NCI/ADR-RES): > 100 µM (inactive)
- GI50 (RXF 393): > 100 µM (inactive)
- GI50 (SK-MEL-5): > 100 µM (inactive)
- GI50 (SN12C): > 100 µM (inactive)
- GI50 (U-251): > 100 µM (inactive)
- GI50 (UACC-62): > 100 µM (inactive)
- GI50 (UO-31): > 100 µM (inactive)

SMILES: CC(C)(C)OC(=O)NC(Cc1ccccc1)C(=O)N1CCCC1C(N)=O (stereo not drawn) (Boc-Phe-Pro-NH2; configuration not given here)
- GI50 (A549): > 100 µM (inactive)
- GI50 (ACHN): > 100 µM (inactive)
- GI50 (CAKI-1): 9.29 µM (inactive)
- GI50 (EKVX): > 100 µM (inactive)
- GI50 (HCC 2998): > 100 µM (inactive)
- GI50 (HCT-15): > 100 µM
- GI50 (HL-60): > 100 µM (inactive)
- GI50 (HOP-92): 1.74 µM (inactive)
- GI50 (M14): > 100 µM (inactive)
- GI50 (Malme-3M): > 100 µM (inactive)
- GI50 (NCI-H460): > 100 µM (inactive)
- GI50 (SK-MEL-5): > 100 µM (inactive)
- GI50 (UACC-62): > 100 µM (inactive)

SMILES: CN1CCC(C(O)(c2ccccc2)c2ccc(Br)cc2)CC1 (centres undefined)
- GI50 (A549): 26.4 µM (inactive)
- GI50 (ACHN): 31.2 µM (inactive)
- GI50 (CAKI-1): 14 µM (inactive)
- GI50 (EKVX): 28.8 µM (inactive)
- GI50 (HCC 2998): 12.6 µM (inactive)
- GI50 (HCT-15): 35.6 µM
- GI50 (HL-60): 20.4 µM (inactive)
- GI50 (HOP-92): 8.45 µM (inactive)
- GI50 (M14): 15.3 µM (inactive)
- GI50 (Malme-3M): 14.5 µM (inactive)
- GI50 (NCI-H226): 21.8 µM (inactive)
- GI50 (NCI-H460): 23.4 µM (inactive)
- GI50 (NCI/ADR-RES): 34.9 µM (inactive)
- GI50 (RXF 393): 18.3 µM (inactive)
- GI50 (SK-MEL-5): 14.8 µM (inactive)
- GI50 (SN12C): 16.9 µM (inactive)
- GI50 (U-251): 17.7 µM (inactive)
- GI50 (UACC-62): 15.7 µM (inactive)
- GI50 (UO-31): 12.5 µM (inactive)

SMILES: CCCN(CCC)c1cc2c(cc1F)c(=O)c(C(=O)O)cn2-c1ccc(N2CCN(C)CC2)cn1
- GI50 (A549): 16.1 µM (inactive)
- GI50 (CAKI-1): 15.3 µM (inactive)
- GI50 (EKVX): 16.7 µM (inactive)
- GI50 (HCT-15): 22.9 µM
- GI50 (HL-60): 6.18 µM (inactive)
- GI50 (HOP-92): 13 µM (inactive)
- GI50 (M14): 16.9 µM (inactive)
- GI50 (Malme-3M): 13.3 µM (inactive)
- GI50 (NCI-H226): 16.7 µM (inactive)
- GI50 (NCI-H460): 17.5 µM (inactive)
- GI50 (NCI/ADR-RES): 17.6 µM (inactive)
- GI50 (RXF 393): 18.7 µM (inactive)
- GI50 (SN12C): 22.5 µM (inactive)
- GI50 (U-251): 25.5 µM (inactive)
- GI50 (UACC-62): 18.5 µM (inactive)
- GI50 (UO-31): 13.3 µM (inactive)

SMILES: CC1C2CC(CC2O)C1(C)C (centres undefined)
- GI50 (A549): > 100 µM (inactive)
- GI50 (ACHN): > 100 µM (inactive)
- GI50 (CAKI-1): > 100 µM (inactive)
- GI50 (HL-60): > 100 µM (inactive)
- GI50 (HOP-92): > 100 µM (inactive)
- GI50 (M14): > 100 µM (inactive)
- GI50 (Malme-3M): > 100 µM (inactive)
- GI50 (NCI-H226): > 100 µM (inactive)
- GI50 (NCI-H460): > 100 µM (inactive)
- GI50 (RXF 393): > 100 µM (inactive)
- GI50 (SK-MEL-5): > 100 µM (inactive)
- GI50 (SN12C): > 100 µM (inactive)
- GI50 (U-251): > 100 µM (inactive)
- GI50 (UACC-62): > 100 µM (inactive)
- GI50 (UO-31): > 100 µM (inactive)
